Reference: US20090317807A1, “Primers for Use in Detecting Metallo-Beta-Lactamases” (priority 2006, published 2009)
Values after ≈ are worked out from the molar mass of the structure shown.

Assays:
[1] = system: Pseudomonas aeruginosa (IMP-18); assay: Broth microdilution antibiotic susceptibility (MicroScan dehydrated panels, NCCLS criteria); assay type: cell-based; details: for MIC: Pseudomonas aeruginosa, read-out: Microdilution MICs
Experimental: The carbapenem-resistant P. aeruginosa isolate investigated in this study was recovered from the tracheal aspirate of a motorcycle accident victim in the southwestern United States.
The isolate was identified by the Phoenix system (Becton Dickinson Diagnostic Systems, Sparks, Md.). Antibiotic susceptibility was determined by broth microdilution method with investigational dehydrated panels provided by Dade Behring MicroScan (Sacramento, Calif.) according to the manufacturer's recommendations and interpreted according to National Committee for Clinical Laboratory Standards (NCCLS) criteria (National Committee for Clinical Laboratory Standards, “Performance Standards for Antimicrobial Susceptibility Testing, Fourteenth informational supplement 24, Wayne, Pa. (2004)).

[2] = system: Pseudomonas aeruginosa (IMP-18); assay: Etest metallo-beta-lactamase strip (imipenem with/without EDTA); assay type: cell-based
From the text: Metallo-beta-lactamase production was phenotypically investigated by using the Etest metallo-beta-lactamase strip (AB BIODISK, Solna, Sweden).

[3] = carbapenem-resistant P. aeruginosa clinical isolate producing IMP-18, broth microdilution

Row | Compound | MIC [1, 3] | further results
1 | C[C@H]1[C@H](NC(=O)/C(=N\OC(C)(C)C(=O)O)c2csc(N)n2)C(=O)N1S(=O)(=O)O [Aztreonam] | 32 µg/mL (≈ 73.5 µM) | 
2 | CO/N=C(\C(=O)N[C@@H]1C(=O)N2C(C(=O)O)=C(CSc3nc(=O)c(=O)[nH]n3C)CS[C@H]12)c1csc(N)n1 [Ceftriaxone] | > 64 µg/mL | 
3 | Gentamicin |  | Microdilution MICs [1, 3]: >32 µg/mL
4 | CC(C)(O/N=C(\C(=O)N[C@@H]1C(=O)N2C(C(=O)[O-])=C(C[n+]3ccccc3)CS[C@H]12)c1csc(N)n1)C(=O)O [Ceftazidime] | > 64 µg/mL | 
5 | CO/N=C(\C(=O)N[C@@H]1C(=O)N2C(C(=O)[O-])=C(C[N+]3(C)CCCC3)CS[C@H]12)c1csc(N)n1 [Cefepime] | > 64 µg/mL | 
6 | C[C@@H](O)[C@H]1C(=O)N2C(C(=O)O)=C(SCCN=CN)C[C@H]12 [Imipenem] | 64 µg/mL (≈ 214 µM) | MIC ([2]; Pseudomonas aeruginosa, without EDTA): ≥ 256 µg/mL; MIC of imipenem by Etest in the presence of EDTA ([2]; in the presence of EDTA): 8 µg/mL; fold reduction in the MIC of imipenem in the presence of EDTA ([2]; with vs without EDTA): ≥ 32 fold
7 | Polymyxin B |  | Microdilution MICs [1, 3]: 4 µg/mL
8 | CN(C)c1cc(NC(=O)CNC(C)(C)C)c(O)c2c1C[C@H]1C[C@H]3[C@H](N(C)C)C(O)=C(C(N)=O)C(=O)[C@@]3(O)C(O)=C1C2=O [Tigecycline] |  | MIC [1]: 32 µg/mL (≈ 54.6 µM)
9 | CN(C)c1ccc(O)c2c1C[C@H]1C[C@H]3[C@H](N(C)C)C(O)=C(C(N)=O)C(=O)[C@@]3(O)C(O)=C1C2=O [Minocycline] | > 128 µg/mL | 
10 | NCC[C@H](O)C(=O)N[C@@H]1C[C@H](N)[C@@H](O[C@H]2O[C@H](CN)[C@@H](O)[C@H](O)[C@H]2O)[C@H](O)[C@H]1O[C@H]1O[C@H](CO)[C@@H](O)[C@H](N)[C@H]1O [Amikacin] | 64 µg/mL (≈ 109 µM) | 
11 | C[C@H]1COc2c(N3CCN(C)CC3)c(F)cc3c(=O)c(C(=O)O)cn1c23 [Levofloxacin] | > 16 µg/mL | 
